System: Vitamin D receptor mRNA
Experiment: Semi-quantitative RT-PCR of renal grafts, vitamin D receptor mRNA
Assay type: in vivo, rat
Description: Semi-quantitative Reverse transcription polymerace chain reaction (RT-PCR): Following graft harvest a […] containing both cortex and medulla was snap frozen in liquid nitrogen. Semi-quantitative RT-PCR was performed as described. Little et al. Transplant Int. […] Briefly, samples were homogenized then total RNA extracted with RNAzol B (Tel Test, Inc., Friendswood, Tex.) and reversed transcribed to cDNA according to manufacturer=s instructions (Superscript, Gibco BRL). PCR was performed over the linear range of amplification for both the gene of interest, e.g. TGFβ-1, and the ribosomal protein S26 as a control housekeeping gene. PCR conditions were chosen such that both products were amplified with similar efficiency. The following cycle parameters were employed: denaturing, 94° C. for 60 seconds; annealing, 61° C. for 60 seconds; and extension, 72° C. for 60 seconds. The amount of product was quantified using a phosphoimager (Storm 80) following gel electrophoresis and Vista green detection.

## C=C1/C(=C\C=C2/CCC[C@]3(C)[C@@H]([C@H](C)CCCC(C)(C)O)CC[C@@H]23)C[C@@H](O)C[C@@H]1O [calcitriol, 1,25-dihydroxyvitamin D3]
All treated groups vs untreated syngeneic control (data not shown)
  Vitamin D receptor mRNA expression: elevated
Vs untreated allogeneic control (data not shown)
  Vitamin D receptor mRNA expression: not significantly different

Source: patent US20080021002A1, “VITAMIN D COMPOUNDS USED TO STABILIZE KIDNEY TRANSPLANTS” (priority 2000, published 2008)
